Legend:
[1] = Rat AUC and percent bioavailability of compound I-1 after administration of potential prodrugs; parameters: species or system Rats; conditions: in vivo, parent, iv 1 mg/kg, read-out: Rat AUClast of compound I-1
[2] = DVS isotherm of spray-dried formulation and crystalline compound I-1; format: physicochemical; conditions: 25° C.; compared with the dispersion
Procedure: (§1) FIG. 1 is a dynamic vapor sorption (DVS) plot of percent change in mass versus target relative humidity (RH), illustrating the change in mass of one embodiment of the disclosed spray-dried formulation at 25° C. under various relative humidity conditions. The plot provides two isotherms: 1 is the sorption plot, illustrating the change in mass with increasing relative humidity steps; and 2 is the desorption plot, illustrating the change in mass with decreasing relative humidity steps.
as §1, with “FIG. 6” for “FIG. 1”, “a DVS” for “a dynamic vapor sorption (DVS)”, “relative humidity,” for “relative humidity (RH),”, “of a crystalline sample of compound I-1” for “of the disclosed spray-dried formulation”
FIGS. 1-10 provide structural and stability data concerning the spray-dried formulation (FIGS. 1-5) and a crystalline sample of compound I-1 (FIGS. 6-10). FIGS. 1 and 6 provide DVS isotherm plots for the spray-dried formulation and crystalline compound, respectively.

[3] = Pharmacokinetics in cynomolgus monkeys (co-crystal and spray-dried dispersion capsules); format: in vivo; conditions: male cynomolgus monkeys (n=3/group), capsule equivalent to 25 mg compound I-1
Procedure: Two groups of male cynomolgus monkeys (n=3/group) were administered test articles in a 3-way crossover design as indicated in Table 2. The washout period between doses was 3-4 days. Test article capsules were prepared such that each capsule contained an equivalent of 25 mg of free base compound I-1. The organic stock solution of compound I-1 was prepared at a concentration of 5 mg/ml using TPGS/PEG400/PG, and was diluted with apple juice within 1 hour of dosing (PO) at 1 part stock solution to 3 parts apple juice.
FIGS. 11-14 provide graphs of the plasma concentrations obtained from administering the co-crystal formulations of compound I-1 to monkeys. And Table 3 provides pharmacokinetic (PK) data for the co-crystal formulations, including the average area under the curve (AUC) and percent bioavailability.
FIG. 19 provides PK data for one embodiment of the disclosed spray-dried formulation, and the organic/juice formulation.

Row | SMILES | AUC(0-t) [1] [ng·h/mL] | change in mass when exposed to higher relative humidity (DVS) [2] | percent bioavailability (% F) of compound I-1 [3] [%]
1 | CCO[C@H]1CC[C@H](n2cc(NC(=O)c3csc(-c4cn[nH]c4)n3)c(-c3nc(F)ccc3F)n2)CC1 [Compound I-1, N-(3-(3,6-difluoropyridin-2-yl)-1-((1r, 4r)-4-ethoxycyclohexyl)-1H-pyrazol-4-yl)-2-(1H-pyrazol-4-yl)thiazole-4-carboxamide] | 1050 | substantially smaller change in mass | –
2 | CCO[C@H]1CC[C@H](n2cc(NC(=O)c3csc(-c4cn[nH]c4)n3)c(-c3nc(F)ccc3F)n2)CC1.O=P(O)(O)O [Compound I-104, N-(3-(3,6-difluoropyridin-2-yl)-1-((1r, 4r)-4-ethoxycyclohexyl)-1H-pyrazol-4-yl)-2-(1H-pyrazol-4-yl)thiazole-4-carboxamide phosphate] | – | – | 7.9

From US12357623B2, “Method for treating a disease or condition using a pyrazole compound or formulation thereof” (Rigel Pharmaceuticals, Inc., priority 2021, dated 2025)
